From patent US20260083865A1, “PROSTATE SPECIFIC MEMBRANE ANTIGEN (PSMA) LIGANDS AND USE THEREOF” (priority 2022, published 2026)
Read-outs that look alike come from different tables or passages of the source. Numbered stars: 1 amine (or outer) side, 2 acyl side, 3 side chain; on linkers, the order of the positions; unused ones are H or OH. Bridge positions count the residues as written; N and C are the ends. Square brackets hold non-standard residues; d marks the D form. Peptide text beside a SMILES is read from it. * marks the point of attachment. X7 = O=C(O)CN1CCN(CC(=O)O)CCN(CC(=O)NC2CCN(CC(=O)*)CC2)CCN(CC(=O)O)CC1; DOTA = O=C(O)CN1CCN(CC(=O)O)CCN(CC(=O)*)CCN(CC(=O)O)CC1; Phe(3-Cl) = N[C@@H](Cc1cccc(Cl)c1)C(=O)O; Phe(4-Cl) = N[C@@H](Cc1ccc(Cl)cc1)C(=O)O; Phe(4-NH2) = Nc1ccc(C[C@H](N)C(=O)O)cc1; X1 = O=C(CC1CCN([*:1])CC1)[*:2]; Cit = NC(=O)NCCC[C@H](N)C(=O)O; Tle = CC(C)(C)[C@H](N)C(=O)O; Propanoyl(3-OH) = O=C(CCO)*; 4Abz = Nc1ccc(C(=O)O)cc1; Nle = CCCC[C@H](N)C(=O)O; Aib = CC(C)(N)C(=O)O

Assays:
[1] = biological target: T1, PSMA-expressing C4-2 cells (Homo sapiens, UniProt Q04609); assay: FACS binding assay (competition with 50 nM PSM-0183); conditions: read-out: pIC50 [C4-2] CAT (converted)
T1 construct: PSMA-expressing C4-2 cells (ATCC, Cat. No. CRL-3314) were cultured in RPMI-1640; host or cells: C4-2 cells
T1 sequence (Q04609 whole entry): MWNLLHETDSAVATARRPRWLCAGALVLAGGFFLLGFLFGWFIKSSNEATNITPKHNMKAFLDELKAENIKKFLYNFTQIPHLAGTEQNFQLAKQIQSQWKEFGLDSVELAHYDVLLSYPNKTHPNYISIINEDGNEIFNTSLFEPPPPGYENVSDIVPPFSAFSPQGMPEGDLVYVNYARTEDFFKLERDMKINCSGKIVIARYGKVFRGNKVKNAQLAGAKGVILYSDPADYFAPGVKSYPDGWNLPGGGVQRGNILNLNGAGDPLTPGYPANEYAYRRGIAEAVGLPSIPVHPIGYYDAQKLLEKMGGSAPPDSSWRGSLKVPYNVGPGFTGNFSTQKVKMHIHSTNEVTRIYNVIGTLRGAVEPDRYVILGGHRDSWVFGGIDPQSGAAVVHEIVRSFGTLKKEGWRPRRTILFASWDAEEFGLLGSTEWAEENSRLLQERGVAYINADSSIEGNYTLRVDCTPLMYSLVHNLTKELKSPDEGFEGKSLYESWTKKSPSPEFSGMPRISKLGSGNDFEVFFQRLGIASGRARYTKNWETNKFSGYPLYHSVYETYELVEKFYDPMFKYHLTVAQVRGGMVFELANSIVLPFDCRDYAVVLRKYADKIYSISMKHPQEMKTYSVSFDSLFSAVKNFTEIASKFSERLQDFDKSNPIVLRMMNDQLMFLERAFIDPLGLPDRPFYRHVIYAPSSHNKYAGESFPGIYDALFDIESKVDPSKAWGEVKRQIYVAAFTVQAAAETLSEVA
In short: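 Competition format: fluorescent tracer PSM-0183 (50 nM) displaced from PSMA on C4-2 cells by a test compound titration over 1 h at 4 °C. Bound tracer was quantified as flow-cytometric AF488 median fluorescence after washing. Four-parameter logistic fits of MFI data gave IC50 and pIC50.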

[2] = biological target: T2, Fc-fusion protein of human PSMA (hPSMA-Fc) (Homo sapiens, UniProt Q04609); assay: Surface plasmon resonance assay (Biacore T200, single cycle kinetic); type: binding; conditions: hPSMA-Fc, 25° C., read-out: pKD CAT (converted)
T2 construct: purchased Acro Biosystems PSA-H5264
T2 sequence (Q04609 44-750 limits assumed): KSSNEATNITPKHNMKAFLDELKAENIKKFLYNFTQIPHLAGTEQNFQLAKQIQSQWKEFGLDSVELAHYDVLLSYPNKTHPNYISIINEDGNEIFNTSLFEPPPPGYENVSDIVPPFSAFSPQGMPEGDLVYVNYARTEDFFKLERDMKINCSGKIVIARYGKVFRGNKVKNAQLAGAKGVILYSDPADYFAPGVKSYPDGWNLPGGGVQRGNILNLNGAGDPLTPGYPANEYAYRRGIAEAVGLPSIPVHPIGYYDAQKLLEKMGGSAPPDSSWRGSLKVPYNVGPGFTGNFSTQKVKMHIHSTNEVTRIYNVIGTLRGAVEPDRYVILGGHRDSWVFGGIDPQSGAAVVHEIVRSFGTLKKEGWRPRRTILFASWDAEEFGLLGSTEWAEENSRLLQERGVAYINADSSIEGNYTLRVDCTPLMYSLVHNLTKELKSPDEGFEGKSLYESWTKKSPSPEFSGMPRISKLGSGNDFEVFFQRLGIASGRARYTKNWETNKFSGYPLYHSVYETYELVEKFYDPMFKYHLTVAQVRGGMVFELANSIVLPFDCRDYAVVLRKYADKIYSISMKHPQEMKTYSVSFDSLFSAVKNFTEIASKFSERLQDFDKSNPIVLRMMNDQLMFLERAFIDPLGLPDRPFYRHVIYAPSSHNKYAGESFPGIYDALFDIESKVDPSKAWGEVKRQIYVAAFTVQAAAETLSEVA
In short: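 KD, expressed as pKD, came from 1:1 Langmuir fits of reference- and buffer-blank-subtracted SPR data. The runs were single-cycle kinetics at 25° C in HBST/0.1% DMSO over human PSMA-Fc, captured to ~1000 RU on a peptide-coated CM5 surface and regenerated with 10 mM glycine pH 1.5.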

[3] = FACS binding, PSMA-expressing C4-2 cells, pIC50 category
[4] = pIC50 category of FACS binding, C4-2 cells
[5] = pKD category for PSMA SPR activity assay

IC50 [1, 3]	Kd ([2]; PSMA SPR assay, pKD category)	SMILES	further results
< 200 nM	< 12.6 nM	C[C@@H](O)[C@H](NC(=O)[C@@H](NC(=O)[C@@H]1CSSC[C@H](NC(=O)[C@H](Cc2ccc(Cl)cc2)NC(=O)C(C)(C)NC(=O)CCO)C(=O)N[C@@H](CCCCN)C(=O)N[C@@H](CCCNC(=N)N)C(=O)N[C@@H](CCCCNC(=O)CN2CCC(NC(=O)CN3CCN(CC(=O)O)CCN(CC(=O)O)CCN(CC(=O)O)CC3)CC2)C(=O)N[C@@H](CC(N)=O)C(=O)N1)C(C)(C)C)C(N)=O [PSM-0324, HPA-Aib-Pcf-[Cys-Lys-Arg-Lys(DOTA-APAc)-Asn-Cys]-Tle-Thr-NH2] ({Propanoyl(3-OH)}-[Aib][Phe(4-Cl)]CKRK(X7)NC[Tle]T-NH2; disulfide 3-8)	
200 to 1260 nM	12.6 to 126 nM	CC(=O)N[C@H](C(=O)NC(C)(C)C(=O)N[C@@H](Cc1cccc(Cl)c1)C(=O)N[C@H]1CSSC[C@@H](C(=O)N[C@H](C(=O)N[C@H](C(=O)N2CCC(CC(=O)N[C@H](CCCCNC(=O)CN3CCN(CC(=O)O)CCN(CC(=O)O)CCN(CC(=O)O)CC3)C(N)=O)CC2)[C@@H](C)O)C(C)(C)C)NC(=O)[C@H](CC(N)=O)NC(=O)C(C)(C)NC(=O)[C@H](CCCNC(N)=O)NC(=O)[C@H](CCCCN)NC1=O)[C@@H](C)O [PSM-0275, Ac-Thr-Aib-Mcf-[Cys-Lys-Cit-Aib-Asn-Cys]-Tle-Thr-Cmp-lys(DOTA)-NH2] (Ac-T[Aib][Phe(3-Cl)]CK[Cit][Aib]NC[Tle]T[X1][dK](DOTA)-NH2; disulfide 4-9)	
200 to 1260 nM	12.6 to 126 nM	CC[C@H](C)[C@H](NC(=O)CC1CCN(C(=O)CN2CCN(CC(=O)O)CCN(CC(=O)O)CCN(CC(=O)O)CC2)CC1)C(=O)NC(C)(C)C(=O)N[C@@H](Cc1ccccc1)C(=O)N[C@H]1CSSC[C@@H](C(=O)N[C@H](C(=O)N[C@H](C(N)=O)[C@@H](C)O)C(C)(C)C)NC(=O)[C@H](CC(N)=O)NC(=O)C(C)(C)NC(=O)[C@H](CCCNC(=N)N)NC(=O)[C@H](CCCCN)NC1=O [PSM-0357, DOTA-Cmp-Ile-Aib-Phe-[Cys-Lys-Arg-Aib-Asn-Cys]-Tle-Thr-NH2] ({DOTA}-[X1]I[Aib]FCKR[Aib]NC[Tle]T-NH2; disulfide 5-10)	

The next lines start with the compound.

SMILES	IC50 [1, 3]	Kd ([2]; PSMA SPR assay, pKD category)	further results
CC(=O)N[C@H](C(=O)NC(C)(C)C(=O)N[C@@H](Cc1ccc(Cl)cc1)C(=O)N[C@H]1CSSC[C@@H](C(=O)N[C@H](C(=O)N[C@H](C(N)=O)[C@@H](C)O)C(C)(C)C)NC(=O)[C@H](Cc2c[nH]c3ccccc23)NC(=O)C(C)(C)NC(=O)[C@H](CCCNC(N)=O)NC(=O)[C@H](CCCCN)NC1=O)[C@@H](C)O [PSM-0238, Ac-Thr-Aib-Pcf-[Cys-Lys-Cit-Aib-Trp-Cys]-Tle-Thr-NH2] (Ac-T[Aib][Phe(4-Cl)]CK[Cit][Aib]WC[Tle]T-NH2; disulfide 4-9)			IC50 ([1]; FACS binding, C4-2 cells, competition with 50 nM PSM-0183, category): < 200 nM; Kd ([2]; SPR, single cycle kinetic, category): < 12.6 nM
CCCC[C@H](NC(=O)[C@@H]1CSSC[C@H](NC(=O)[C@H](Cc2ccccc2)NC(=O)[C@H](C)NC(=O)[C@H](CO)NC(C)=O)C(=O)N[C@@H](CCCCN)C(=O)N[C@@H](CCCNC(=N)N)C(=O)N[C@@H](C)C(=O)N[C@@H](CC(N)=O)C(=O)N1)C(=O)N[C@H](C(=O)N[C@@H](CC(=O)O)C(N)=O)[C@@H](C)O [PSM-0469, Ac-Ser-Ala-Phe-[Cys-Lys-Arg-Ala-Asn-Cys]-Nle-Thr-Asp-NH2] (Ac-SAFCKRANC[Nle]TD-NH2; disulfide 4-9)			IC50 [1, 4]: < 200 nM; Kd [2, 5]: 12.6 to 126 nM
CC(=O)N[C@H](C(=O)NC(C)(C)C(=O)N[C@@H](Cc1ccccc1)C(=O)N[C@H]1CSSC[C@@H](C(=O)N[C@H](C(=O)N[C@H](C(=O)N[C@@H](CC(=O)O)C(N)=O)[C@@H](C)O)C(C)(C)C)NC(=O)[C@H](CC(N)=O)NC(=O)[C@H](C)NC(=O)[C@H](CCCNC(=N)N)NC(=O)[C@H](Cc2ccc(N)cc2)NC1=O)[C@@H](C)O [PSM-0439, Ac-Thr-Aib-Phe-[Cys-Aph-Arg-Ala-Asn-Cys]-Tle-Thr-Asp-NH2] (Ac-T[Aib]FC[Phe(4-NH2)]RANC[Tle]TD-NH2; disulfide 4-9)			IC50 [1, 4]: < 200 nM; Kd [2, 5]: 126 to 501 nM
C[C@@H](O)[C@H](NC(=O)[C@@H](NC(=O)[C@@H]1CSSC[C@H](NC(=O)[C@H](Cc2ccccc2)NC(=O)C(C)(C)NC(=O)c2ccc(NC(=O)CN3CCN(CC(=O)O)CCN(CC(=O)O)CCN(CC(=O)O)CC3)cc2)C(=O)N[C@@H](CCCCN)C(=O)N[C@@H](CCCNC(=N)N)C(=O)NC(C)(C)C(=O)N[C@@H](CC(N)=O)C(=O)N1)C(C)(C)C)C(N)=O [PSM-0316, DOTA-Pab-Aib-Phe-[Cys-Lys-Arg-Aib-Asn-Cys]-Tle-Thr-NH2] ({DOTA-4Abz}-[Aib]FCKR[Aib]NC[Tle]T-NH2; disulfide 3-8)	< 200 nM	< 12.6 nM	
